Assay results published in PubChem BioAssay (NCI).
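Briefly, cells in 96-well plates were exposed to five compound concentrations for 48 h, and endpoints were estimated by linear interpolation. At the GI50, growth is halved. TGI marks complete inhibition of growth.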

Tests used:
Test in all cases: NCI tumour cell line growth inhibition, 48 h
ACHN renal = system: ACHN renal
COLO 205 colon = system: COLO 205 colon
MALME-3M melanoma = system: MALME-3M melanoma
SF-539 CNS = system: SF-539 CNS
NCI-H23 lung = system: NCI-H23 lung
SF-295 CNS = system: SF-295 CNS
DMS 114 small cell lung = system: DMS 114 small cell lung
RXF 393 renal = system: RXF 393 renal
RPMI-8226 leukemia = system: RPMI-8226 leukemia
HCT-116 colon = system: HCT-116 colon
HOP-62 NSCLC = system: HOP-62 NSCLC
HCC-2998 colon = system: HCC-2998 colon
UACC-257 melanoma = system: UACC-257 melanoma
SK-MEL-28 melanoma = system: SK-MEL-28 melanoma
OVCAR-5 ovarian = system: OVCAR-5 ovarian
MOLT-4 leukemia = system: MOLT-4 leukemia
LOX IMVI melanoma = system: LOX IMVI melanoma
786-0 renal = system: 786-0 renal
SN12C renal = system: SN12C renal
EKVX NSCLC = system: EKVX NSCLC
HOP-92 NSCLC = system: HOP-92 NSCLC
UACC-62 melanoma = system: UACC-62 melanoma
NCI-H460 lung = system: NCI-H460 lung
SR leukemia = system: SR leukemia
M19-MEL melanoma = system: M19-MEL melanoma
M14 melanoma = system: M14 melanoma
IGROV1 ovarian = system: IGROV1 ovarian
SK-MEL-5 melanoma = system: SK-MEL-5 melanoma
KM20L2 colon = system: KM20L2 colon
HT29 colon = system: HT29 colon
A549 NSCLC = system: A549 NSCLC
SNB-75 CNS = system: SNB-75 CNS
SW-620 colon = system: SW-620 colon
U251 CNS = system: U251 CNS
HCT-15 colon = system: HCT-15 colon
HL-60(TB) leukemia = system: HL-60(TB) leukemia
LXFL 529 NSCLC = system: LXFL 529 NSCLC
UO-31 renal = system: UO-31 renal
A498 renal = system: A498 renal
SNB-19 CNS = system: SNB-19 CNS
OVCAR-3 ovarian = system: OVCAR-3 ovarian
OVCAR-8 ovarian = system: OVCAR-8 ovarian
NCI-H226 lung = system: NCI-H226 lung
KM12 colon = system: KM12 colon
SF-268 CNS = system: SF-268 CNS
HOP-18 NSCLC = system: HOP-18 NSCLC
K-562 leukemia = system: K-562 leukemia
SK-OV-3 ovarian = system: SK-OV-3 ovarian
DLD-1 colon = system: DLD-1 colon
NCI-H522 lung = system: NCI-H522 lung
TK-10 renal = system: TK-10 renal
CCRF-CEM leukemia = system: CCRF-CEM leukemia
CAKI-1 renal = system: CAKI-1 renal
DMS 273 small cell lung = system: DMS 273 small cell lung
XF 498 CNS = system: XF 498 CNS

O=S(=O)([O-])[O-].[Fe+2].[OH2+]c1c(Cl)cc(Cl)cc1/C=N/Nc1ccccn1
TGI (ACHN renal): 1.12 µM | TGI (COLO 205 colon): 3.47 µM | TGI (MALME-3M melanoma): 3.57 µM | TGI (SF-539 CNS): 1.27 µM | TGI (NCI-H23 lung): 2.64 µM | TGI (SF-295 CNS): 3.45 µM | TGI (DMS 114 small cell lung): 0.595 µM | TGI (RXF 393 renal): 1.9 µM | TGI (RPMI-8226 leukemia): 6.12 µM | TGI (HCT-116 colon): 2.63 µM | TGI (HOP-62 NSCLC): 3.56 µM | TGI (HCC-2998 colon): 5.13 µM | TGI (UACC-257 melanoma): 2.63 µM | TGI (SK-MEL-28 melanoma): 3.32 µM | TGI (OVCAR-5 ovarian): 5.97 µM | TGI (MOLT-4 leukemia): 2.94 µM | TGI (LOX IMVI melanoma): 2.79 µM | TGI (786-0 renal): 1.92 µM | TGI (SN12C renal): 2.82 µM | TGI (EKVX NSCLC): 2.25 µM | TGI (HOP-92 NSCLC): 0.899 µM | TGI (UACC-62 melanoma): 3.38 µM | TGI (NCI-H460 lung): 4.42 µM | TGI (SR leukemia): 4.03 µM | TGI (M19-MEL melanoma): 4.86 µM | TGI (M14 melanoma): 7.44 µM | TGI (IGROV1 ovarian): 3.13 µM | TGI (SK-MEL-5 melanoma): 15.1 µM | TGI (KM20L2 colon): 3.66 µM | TGI (HT29 colon): 3.6 µM | TGI (A549 NSCLC): 4.14 µM | TGI (SNB-75 CNS): 1.64 µM | TGI (SW-620 colon): 3.49 µM | TGI (U251 CNS): 2.74 µM | TGI (HCT-15 colon): 3.48 µM | TGI (HL-60(TB) leukemia): 2.92 µM | TGI (LXFL 529 NSCLC): 1.39 µM | TGI (UO-31 renal): 3.13 µM | TGI (A498 renal): 4.5 µM | TGI (SNB-19 CNS): 3.64 µM | TGI (OVCAR-3 ovarian): 0.578 µM | TGI (OVCAR-8 ovarian): 2.94 µM | TGI (NCI-H226 lung): 4.41 µM | TGI (KM12 colon): 2.75 µM | TGI (SF-268 CNS): 1.94 µM | GI50 (HOP-18 NSCLC): 0.55 µM | TGI (HOP-18 NSCLC): 1.93 µM | TGI (K-562 leukemia): 3.26 µM | GI50 (SK-OV-3 ovarian): 1.86 µM | TGI (SK-OV-3 ovarian): 3.7 µM | TGI (DLD-1 colon): 1.8 µM | TGI (NCI-H522 lung): 1.92 µM | GI50 (TK-10 renal): 1.01 µM | TGI (TK-10 renal): 2.33 µM

Cc1nc2ccccc2c(=O)n1/N=C(\N=Nc1ccccc1Cl)c1ccccc1
TGI (COLO 205 colon): 49.2 µM | TGI (SF-539 CNS): 43.1 µM | TGI (NCI-H23 lung): > 100 µM | TGI (DMS 114 small cell lung): 37.8 µM | TGI (RXF 393 renal): 85.3 µM | TGI (RPMI-8226 leukemia): 49.2 µM | TGI (HOP-62 NSCLC): > 100 µM | TGI (CCRF-CEM leukemia): 55.2 µM | TGI (SK-MEL-28 melanoma): > 100 µM | TGI (LOX IMVI melanoma): 97.9 µM | TGI (786-0 renal): 36.7 µM | TGI (EKVX NSCLC): 78.3 µM | TGI (HOP-92 NSCLC): > 100 µM | TGI (UACC-62 melanoma): 46.6 µM | TGI (CAKI-1 renal): 43 µM | TGI (NCI-H460 lung): > 100 µM | TGI (M19-MEL melanoma): 67.2 µM | TGI (M14 melanoma): 97.7 µM | TGI (IGROV1 ovarian): 38.9 µM | TGI (SK-MEL-5 melanoma): 41.9 µM | TGI (KM20L2 colon): 48.7 µM | TGI (HT29 colon): 47.6 µM | TGI (A549 NSCLC): > 100 µM | TGI (SW-620 colon): 63.9 µM | TGI (U251 CNS): > 100 µM | TGI (HCT-15 colon): > 100 µM | TGI (HL-60(TB) leukemia): 38.3 µM | TGI (DMS 273 small cell lung): > 100 µM | TGI (UO-31 renal): > 100 µM | TGI (A498 renal): > 100 µM | TGI (SNB-19 CNS): > 100 µM | TGI (OVCAR-8 ovarian): > 100 µM | TGI (SF-268 CNS): > 100 µM | TGI (HOP-18 NSCLC): > 100 µM | TGI (SK-OV-3 ovarian): > 100 µM | TGI (DLD-1 colon): > 100 µM | TGI (XF 498 CNS): 45.7 µM | TGI (NCI-H522 lung): 60.9 µM | TGI (TK-10 renal): > 100 µM
